Laboratory results as given in patent publication US20250179047A1, “5-[7-(3,4-DIHYDRO-1H-ISOQUINOLINE-2-CARBONYL)-1,2,3,4 TETRAHYDROISOQUINOLIN-6-YL]-1H-PYRROLE-3-CARBOXAMIDE DERIVATIVES, PHARMACEUTICAL COMPOSITIONS CONTAINING THEM AND THEIR USES AS PRO-APOPTOTIC AGENTS” (LES LABORATOIRES SERVIER, priority 2022, published 2025).

Columns and labels:
KMS-12-PE Bcl-2 WT = experiment: In vitro cytotoxicity CellTiter-Glo 48 h, KMS-12-PE Bcl-2 WT; format: cell-based; conditions: C50 = concentration needed to reach 50% of the cellular viability
Summary of the method: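 Transduce KMS-12-PE with Bcl-2 WT or G101V lentivirus, then FACS-sort RFP-positive cells. Add compounds in an 11-point dilution series and incubate 48 h at 37 °C. Measure ATP-based luminescence with CellTiter-Glo and derive C50 (50% viability).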

BCL2 F104I = BCL2 F104I (Homo sapiens, UniProt P10415, F104I); experiment: TR-FRET competitive binding assay, BCL2 F104I; conditions: Ki determined from IC50, read-out: TR_FRET EKI_Bcl2 F104I
Summary of the method: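 Competitive TR-FRET displacement of fluorescein-PUMA peptide (2 or 20 nM) from 0.5 nM terbium-labelled N-terminal Halo-fusion BCL2 (1-207, wild type or mutant) or BCLXL (2-196), expressed in E. coli. Buffer 50 mM Hepes pH 7.5, 150 mM NaCl, 5% DMSO; 2 h at 23°C. 520/495 nm ratio fitted over 11 points for IC50, converted to Ki.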

KMS12PE Bcl2 F104L = experiment: In vitro cytotoxicity CellTiterGlo 72 h, KMS12PE Bcl2 F104L; format: cell-based; conditions: Homo sapiens, KMS-12-PE, read-out: C50 nM, KMS12PE Bcl2 F104L
Protocol: KMS-12-PE (ACC 606) were purchased from the Leibniz-Institute DSMZ (Braunschweig, Germany) and were grown at 37° C. in a humidified atmosphere with 5% CO2 in media recommended by the suppliers. Lentiviral particles containing Bcl-2 wild type (also named “Bcl2 WT”), Bcl-2 mutated on G101V (also named “Bcl2 G101V”), Bcl-2 mutated on D103Y (also named “Bcl2 D103Y”), Bcl-2 mutated on D103V (also named “Bcl2 D103V”), Bcl-2 mutated on D103E (also named “Bcl2 D103E”), Bcl-2 mutated on F104I (also named “Bcl2 F104I”), Bcl-2 mutated on F104L (also named “Bcl2 F104L”), Bcl-2 mutated on D111A (also named “Bcl2 D111A”), Bcl-2 mutated on A113G (also named “Bcl2 A113G”), Bcl-2 mutated on R129L (also named “Bcl2 R129L”), Bcl-2 mutated on V156D (also named “Bcl2 V156D”) were cloned into pcLV-CMV-DEST-IRES-TagRFP. Lentiviral particles (1×10^6) were mixed with Polybrene at 8 μg/ml and transduced by spinoculation for 1 h at 32° C. and incubated overnight. After 8 days, TagRFP positive-cells were sorted by FACS. BCL2 expression was monitored by immunoblotting using anti-Flag and anti-BCL2 antibodies. Cells were seeded into 96-wells plates and treated with 1:3.16 serial dilution of compounds (9 different concentrations). Cell viability was assessed using CellTiterGlo reagent following treatment for 72 h. Results were normalized to the viability of cells without compounds (control wells). The C50 values were calculated using nonlinear regression algorithms in XCell software.

`Cc1c(N(C(=O)c2cc(-c3cc4c(cc3C(=O)N3Cc5ccccc5C[C@H]3C)CN(C(=O)Cc3ccc(OCCN5CCOCC5)cc3)CC4)n(C)c2C)c2ccc(O)cc2)cc(C#N)n1C` [Example 21, N-(5-cyano-1,2-dimethyl-1H-pyrrol-3-yl)-N-(4-hydroxyphenyl)-1,2-dimethyl-5-{7-[(3R)-3-methyl-1,2,3,4-tetrahydroisoquinoline-2-carbonyl]-2-(2-{4-[2-(morpholin-4-yl)ethoxy]phenyl}acetyl)-1,2,3,4-tetrahydroisoquinolin-6-yl}-1H-pyrrole-3-carboxamide] showed an IC50 (KMS-12-PE Bcl-2 WT; Homo sapiens, KMS-12-PE) of 0.0057 µM, a Ki (BCL2 F104I) of 0.29 nM and an IC50 (KMS12PE Bcl2 F104L) of 15.8 nM.
`Cc1c(N(C(=O)c2cc(-c3cc4c(cc3C(=O)N3Cc5ccccc5C[C@H]3C)CN(C(=O)Cc3ccc(OCCC5CCOCC5)cc3)CC4)n(C)c2C)c2ccc(O)cc2)cc(C#N)n1C` [Example 27, N-(5-cyano-1,2-dimethyl-1H-pyrrol-3-yl)-N-(4-hydroxyphenyl)-1,2-dimethyl-5-{7-[(3R)-3-methyl-1,2,3,4-tetrahydroisoquinoline-2-carbonyl]-2-(2-{4-[2-(oxan-4-yl)ethoxy]phenyl}acetyl)-1,2,3,4-tetrahydroisoquinolin-6-yl}-1H-pyrrole-3-carboxamide] was tested, and the IC50 (KMS-12-PE Bcl-2 WT; Homo sapiens, KMS-12-PE) was 0.0037 µM, the Ki (BCL2 F104I) was 2.36 nM and the IC50 (KMS12PE Bcl2 F104L) was 5.51 nM.
With `Cc1c(N(C(=O)c2cc(-c3cc4c(cc3C(=O)N3Cc5ccccc5C[C@H]3CN3CCCCC3)CN(C(=O)Cc3ccc(OCCN5CCOCC5)cc3F)CC4)n(C)c2C)c2ccc(O)cc2)cc(C#N)n1C` [Example 43, N-(5-cyano-1,2-dimethylpyrrol-3-yl)-5-[2-(2-{2-fluoro-4-[2-(morpholin-4-yl)ethoxy]phenyl}acetyl)-7-{[(3S)-3-(piperidin-1-ylmethyl)-3,4-dihydro-1H-isoquinolin-2-yl]carbonyl}-3,4-dihydro-1H-isoquinolin-6-yl]-N-(4-hydroxyphenyl)-1,2-dimethylpyrrole-3-carboxamide] the IC50 (KMS-12-PE Bcl-2 WT) was 0.0048 µM, the Ki (BCL2 F104I) was 0.16 nM and the IC50 (KMS12PE Bcl2 F104L) was 8.49 nM.
With `Cc1c(N(C(=O)c2cc(-c3cc4c(cc3C(=O)N3Cc5ccccc5C[C@H]3C)CN(C(=O)Cc3ccc(N5CCN6CCOC[C@@H]6C5)cc3F)CC4)n(C)c2C)c2ccc(O)cc2)cc(C#N)n1C` [Example 45, 5-[2-(2-{4-[(9aS)-octahydropyrazino[2,1-c][1,4]oxazin-8-yl]-2-fluorophenyl}acetyl)-7-[(3R)-3-methyl-1,2,3,4-tetrahydroisoquinoline-2-carbonyl]-1,2,3,4-tetrahydroisoquinolin-6-yl]-N-(5-cyano-1,2-dimethyl-1H-pyrrol-3-yl)-N-(4-hydroxyphenyl)-1,2-dimethyl-1H-pyrrole-3-carboxamide] the IC50 (KMS-12-PE Bcl-2 WT; Homo sapiens, KMS-12-PE) was 0.005 µM, the Ki (BCL2 F104I) was 1.65 nM and the IC50 (KMS12PE Bcl2 F104L) was 22.5 nM.
In the case of `Cc1c(N(C(=O)c2cc(-c3cc4c(cc3C(=O)N3Cc5ccccc5C[C@H]3C)CN(C(=O)Cc3ccc(CCN5CCC(F)(F)CC5)cc3)CC4)n(C)c2C)c2ccc(O)cc2)cc(C#N)n1C` [Example 51, N-(5-cyano-1,2-dimethylpyrrol-3-yl)-5-[2-(2-{4-[2-(4,4-difluoropiperidin-1-yl)ethyl]phenyl}acetyl)-7-{[(3R)-3-methyl-3,4-dihydro-1H-isoquinolin-2-yl]carbonyl}-3,4-dihydro-1H-isoquinolin-6-yl]-N-(4-hydroxyphenyl)-1,2-dimethylpyrrole-3-carboxamide], the IC50 (KMS-12-PE Bcl-2 WT; Homo sapiens, KMS-12-PE) is reported as 0.0068 µM, the Ki (BCL2 F104I) is reported as 4.91 nM and the IC50 (KMS12PE Bcl2 F104L) is reported as 58.9 nM.
With `COC[C@@H]1Cc2ccccc2CN1C(=O)c1cc2c(cc1-c1cc(C(=O)N(c3ccc(O)cc3)c3cc(C#N)n(C)c3C)c(C)n1C)CCN(C(=O)Cc1ccc(OCCC3CCOCC3)cc1F)C2` [Example 52, N-(5-cyano-1,2-dimethylpyrrol-3-yl)-5-[2-(2-{2-fluoro-4-[2-(oxan-4-yl)ethoxy]phenyl}acetyl)-7-{[(3S)-3-(methoxymethyl)-3,4-dihydro-1H-isoquinolin-2-yl]carbonyl}-3,4-dihydro-1H-isoquinolin-6-yl]-N-(4-hydroxyphenyl)-1,2-dimethylpyrrole-3-carboxamide] the IC50 (KMS-12-PE Bcl-2 WT; Homo sapiens, KMS-12-PE) was 0.0034 µM, the Ki (BCL2 F104I) was 0.77 nM and the IC50 (KMS12PE Bcl2 F104L) was 11.1 nM.
With `Cc1c(N(C(=O)c2cc(-c3cc4c(cc3C(=O)N3Cc5ccccc5C[C@H]3C)CN(C(=O)Cc3ccc(OCCN5CCC(F)CC5)cc3)CC4)n(C)c2C)c2ccc(O)cc2)cc(C#N)n1C` [Example 53, N-(5-cyano-1,2-dimethyl-1H-pyrrol-3-yl)-5-[2-(2-{4-[2-(4-fluoropiperidin-1-yl)ethoxy]phenyl}acetyl)-7-[(3R)-3-methyl-1,2,3,4-tetrahydroisoquinoline-2-carbonyl]-1,2,3,4-tetrahydroisoquinolin-6-yl]-N-(4-hydroxyphenyl)-1,2-dimethyl-1H-pyrrole-3-carboxamide] the IC50 (KMS-12-PE Bcl-2 WT; Homo sapiens, KMS-12-PE) was 0.0072 µM, the Ki (BCL2 F104I) was 0.35 nM and the IC50 (KMS12PE Bcl2 F104L) was 25.5 nM.
Compound `Cc1c(N(C(=O)c2cc(-c3cc4c(cc3C(=O)N3Cc5ccccc5C[C@H]3C)CN(C(=O)Cc3ccc(OCCN5CCSCC5)cc3)CC4)n(C)c2C)c2ccc(O)cc2)cc(C#N)n1C` [Example 55, N-(5-cyano-1,2-dimethyl-1H-pyrrol-3-yl)-N-(4-hydroxyphenyl)-1,2-dimethyl-5-{7-[(3R)-3-methyl-1,2,3,4-tetrahydroisoquinoline-2-carbonyl]-2-(2-{4-[2-(thiomorpholin-4-yl)ethoxy]phenyl}acetyl)-1,2,3,4-tetrahydroisoquinolin-6-yl}-1H-pyrrole-3-carboxamide] has an IC50 (KMS-12-PE Bcl-2 WT; Homo sapiens, KMS-12-PE) of 0.0062 µM, a Ki (BCL2 F104I) of 0.3 nM and an IC50 (KMS12PE Bcl2 F104L) of 19.7 nM.
In the case of `Cc1c(N(C(=O)c2cc(-c3cc4c(cc3C(=O)N3Cc5ccccc5C[C@H]3CN3CCCCC3)CN(C(=O)Cc3ccc(OCCC5CCOCC5)cc3)CC4)n(C)c2C)c2ccc(O)cc2)cc(C#N)n1C` [Example 66, N-(5-cyano-1,2-dimethylpyrrol-3-yl)-N-(4-hydroxyphenyl)-1,2-dimethyl-5-[2-(2-{4-[2-(oxan-4-yl)ethoxy]phenyl}acetyl)-7-{[(3S)-3-(piperidin-1-ylmethyl)-3,4-dihydro-1H-isoquinolin-2-yl]carbonyl}-3,4-dihydro-1H-isoquinolin-6-yl]pyrrole-3-carboxamide], the IC50 (KMS-12-PE Bcl-2 WT; Homo sapiens, KMS-12-PE) is reported as 0.006 µM, the Ki (BCL2 F104I) is reported as 0.47 nM and the IC50 (KMS12PE Bcl2 F104L) is reported as 24.1 nM.
`Cc1c(C(=O)N(c2ccc(O)cc2)c2cc(C#N)n(C(F)F)c2C)cc(-c2cc3c(cc2C(=O)N2Cc4ccccc4C[C@H]2CN2CCCCC2)CN(C(=O)Cc2ccc(OCCN4CCOCC4)cc2)CC3)n1C` [Example 77] showed an IC50 (KMS-12-PE Bcl-2 WT; Homo sapiens, KMS-12-PE) of 0.0084 µM, a Ki (BCL2 F104I) of 0.47 nM and an IC50 (KMS12PE Bcl2 F104L) of 31.9 nM.
`Cc1c(C(=O)N(c2ccc(O)cc2)c2cc(C#N)n(C(F)F)c2C)cc(-c2cc3c(cc2C(=O)N2Cc4ccccc4C[C@H]2CN2CCCCC2)CN(C(=O)Cc2ccc(OCCN4CCOCC4)cc2F)CC3)n1C` [Example 78, N-[5-cyano-1-(difluoromethyl)-2-methylpyrrol-3-yl]-5-[2-(2-{2-fluoro-4-[2-(morpholin-4-yl)ethoxy]phenyl}acetyl)-7-{[(3S)-3-(piperidin-1-ylmethyl)-3,4-dihydro-1H-isoquinolin-2-yl]carbonyl}-3,4-dihydro-1H-isoquinolin-6-yl]-N-(4-hydroxyphenyl)-1,2-dimethylpyrrole-3-carboxamide] showed an IC50 (KMS-12-PE Bcl-2 WT; Homo sapiens, KMS-12-PE) of 0.005 µM, a Ki (BCL2 F104I) of 0.43 nM and an IC50 (KMS12PE Bcl2 F104L) of 8.71 nM.
Compound `Cc1c(N(C(=O)c2cc(-c3cc4c(cc3C(=O)N3Cc5ccccc5C[C@H]3CN3CCC[C@H](C)C3)CN(C(=O)Cc3ccc(OCCN5CCOCC5)cc3F)CC4)n(C)c2C)c2ccc(O)cc2)cc(C#N)n1C` [Example 107] has an IC50 (KMS-12-PE Bcl-2 WT; Homo sapiens, KMS-12-PE) of 0.0034 µM, a Ki (BCL2 F104I) of 0.34 nM and an IC50 (KMS12PE Bcl2 F104L) of 7.04 nM.
